Assay results as given in ChEMBL document CHEMBL3507680, “University of Dundee, Gates Library screen for HepG2 cell viability”.

Test: Human HepG2 cell viability assay in 384 well format
Assay type: toxicity, cell-based
Parameters: dose 125 nL, time 70.5 hour; cytotoxicity at 70.5 h: concentration not given beside the values
Conditions: HepG2 cells, read-out: Inhibition

In order of rising cytotoxicity at 70.5 h:
1. N#Cc1ccc(CNCCS(=O)(=O)N2CCc3ccccc32)cc1  -10.2%
2. COCc1cc(N(C)Cc2ccccn2)nc(C(C)(C)C)n1  -10.1%
3. COc1cccc(CN(C)CCCn2cnc3c(N)ncnc32)c1  -9.38%
4. O=C(CCSc1ccccc1F)NCc1cccnc1  -8.87%
5. CN(Cc1nnc2ccccn12)C(=O)CCC1CCCC1  -8.63%
6. Cc1noc(C)c1CN(C)Cc1csc(-c2ccc(F)cc2)n1  -8.1%
7. CCOc1ccc(NC(=O)Cc2cc(C)[nH]n2)cc1CO  -7.67%
8. CCOc1ccc(C(=O)NCc2ccnc(N3CCN(C)CC3)c2)cn1  -7.61%
9. O=C(C1SCCc2ccccc21)N1CCC(O)CC1 (configuration not stated)  -7.52%
10. COC(=O)Nc1cccc(C(=O)N(C)Cc2cccc(O)c2)c1  -6.41%
11. COc1ccc(OCCN(C)CCCn2cnc3c(N)ncnc32)cc1  -5.85%
12. CNC(=O)COc1c(F)cc(Br)cc1C(C)=O  -5.63%
13. CC(NCCCn1cccn1)c1ccc(N2CCCS2(=O)=O)cc1 (configuration not stated)  -4.88%
14. CN(CCCn1cnc2c(N)ncnc21)Cc1ccccc1  -4.43%
15. Cc1ncc(C(=O)NCCNc2ccncc2)s1  -3.98%
16. CN(CC(=O)NS(=O)(=O)c1ccc(F)cc1)Cc1ccccc1  -3.97%
17. Cc1ccc(CC(=O)NCC(O)c2cc(Cl)cc(Cl)c2)cn1 (configuration not stated)  -3.94%
18. COC(C(=O)NCc1c(C)nc2cc(=O)[nH]n2c1C)c1ccccc1 (configuration not stated)  -3.2%
19. CC(=O)N1CCC(NC(=O)c2cc(S(N)(=O)=O)ccc2C)CC1  -3.13%
20. Cc1cc(N(C)C)nc(N2CCCC2c2ccccn2)n1 (configuration not stated)  -3.12%
21. CCc1nnc(SC2CCN(c3ccccc3F)C2=O)n1C (configuration not stated)  -2.9%
22. CC(C)(C)OC(=O)N1CCC(NCc2cnn(C(C)(C)C)c2)CC1  -2.5%
23. CCOc1ccc(NC(=O)c2ccc(C#N)cc2C)cc1CO  -1.73%
24. CN(c1ncccc1C#N)C1CCN(CCc2ccncc2)CC1  -1.68%
25. Cn1c(N)nnc1SC1CCCN(c2ccccc2F)C1=O (configuration not stated)  -1.56%
26. CC(C)(C)n1cc(CNC2CCN(C(=O)c3ccncc3)CC2)cn1  -1.24%
27. Cc1ccc(S(N)(=O)=O)cc1C(=O)NC1CCCC1  -1.13%
28. CCc1ncc(C(=O)NCCNc2ccncc2)s1  -0.807%
29. Cc1nc2n(n1)CC(NCc1nc(-c3cccs3)no1)CC2 (configuration not stated)  0.591%
30. Cc1noc(C)c1CSCc1csc(CS(C)(=O)=O)n1  0.624%
31. CCOc1cccc(COC(=O)c2cc(C)on2)n1  1.07%
32. CC(C)(C)n1cc(CNC2CCN(C(=O)c3ccco3)CC2)cn1  1.29%
33. Cc1cccc(NC(=O)CCC(=O)NCC(=O)c2ccccc2F)c1  2.08%
34. COC(=O)N1CCC(NC(=O)c2cc(S(N)(=O)=O)ccc2C)CC1  2.43%
35. Cc1nc2cc(=O)[nH]n2c(C)c1CNC(=O)C(C)Cc1ccccc1 (configuration not stated)  3.77%
36. CCN1CCOC(CNCc2cnc(N(CC)CC)s2)C1 (configuration not stated)  5.52%
37. O=C(CCC(=O)Nc1ccccc1)NCC(=O)c1ccc(F)cc1F  5.75%
38. Cn1c(CO)cnc1SC1CCCN(c2ccccc2F)C1=O (configuration not stated)  6.04%
39. Cc1n[nH]c(C)c1CCC(=O)NC1CCCN(c2ccccc2F)C1 (configuration not stated)  6.82%
40. CNS(=O)(=O)c1ccc(CNC(=O)N2CCOC(C)C2)cc1 (configuration not stated)  10.2%
41. O=C1CC(N(C(=O)c2csc(-c3ccccc3)n2)C2CC2)C(=O)N1 (configuration not stated)  10.8%
42. N#Cc1ccc(NCCS(=O)(=O)N2CCc3ccccc32)nc1  13%
43. N#Cc1cccc(S(=O)(=O)NC(=O)c2csc(-c3ccco3)n2)c1  16.6%
44. CCOc1ccc(NC(=O)c2[nH]c(C)cc2C)cc1CO  20.6%
45. O=C(CC1CCCO1)NS(=O)(=O)Cc1cc(-c2ccccc2)no1 (configuration not stated)  20.6%
46. COC(=O)c1cccc(C(=O)N(C)Cc2ccsc2)c1  22.5%
47. Cc1cc(C)n(CC(C)CNC(=O)NCc2csc(C)n2)n1 (configuration not stated)  42.1%
